Experimental findings from ChEMBL document CHEMBL1201862, “PubChem BioAssay data set” (2004) are described below.

Activity calls are given as the source filed them. Bounds are passed on as bounds.

Data set [1] can be described thus: Luminescence Cell-Based Dose Response HTS to Identify Activators of Luciferase Translation or Activity in H4 […] Cells. [Related pubchem assays: 1829 (Project Summary), 1814 (Primary HTS)]. The class given is functional.
The subject of a further data set is H4. Briefly: Luminescence Cell-Based Dose Response HTS to Identify Activators of 5'UTR Stem-Loop Driven Prion Protein mRNA Translation in H4 Neuroglioblastoma Cells. [Related pubchem assays: 1829 (Project Summary), 1814 (Primary HTS)]. It counts as functional. The settings on record: Homo sapiens.
Data set [2] has as its target T1, Corticotropin-releasing factor receptor 2/Corticotropin-releasing factor-binding protein (Homo sapiens, UniProt P24387+Q13324).
T1 sequence (Q13324 whole entry): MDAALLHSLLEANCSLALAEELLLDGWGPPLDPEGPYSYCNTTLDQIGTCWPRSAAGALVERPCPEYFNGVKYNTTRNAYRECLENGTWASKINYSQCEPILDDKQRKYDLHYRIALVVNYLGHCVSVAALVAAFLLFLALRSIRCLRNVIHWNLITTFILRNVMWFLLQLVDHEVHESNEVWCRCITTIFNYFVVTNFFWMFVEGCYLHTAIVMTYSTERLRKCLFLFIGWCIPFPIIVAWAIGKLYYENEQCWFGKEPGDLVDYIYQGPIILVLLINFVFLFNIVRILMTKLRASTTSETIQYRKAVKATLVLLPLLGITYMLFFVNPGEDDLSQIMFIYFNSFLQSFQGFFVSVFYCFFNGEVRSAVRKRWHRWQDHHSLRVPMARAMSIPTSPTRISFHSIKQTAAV
T1 sequence (P24387 whole entry): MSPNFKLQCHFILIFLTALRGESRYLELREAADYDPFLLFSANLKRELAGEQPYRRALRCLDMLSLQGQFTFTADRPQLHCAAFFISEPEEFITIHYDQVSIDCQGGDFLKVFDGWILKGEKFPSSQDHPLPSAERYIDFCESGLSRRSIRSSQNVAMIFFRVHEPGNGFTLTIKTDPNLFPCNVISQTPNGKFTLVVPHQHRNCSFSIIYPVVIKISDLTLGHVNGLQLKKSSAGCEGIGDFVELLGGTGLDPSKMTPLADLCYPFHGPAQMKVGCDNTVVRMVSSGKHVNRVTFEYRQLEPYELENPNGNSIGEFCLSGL
The data set can be described thus: Dose Response confirmation of uHTS hits for small molecule antagonists of the CRF-binding protein and CRF-R2 receptor complex. It counts as functional. The settings on record: read-out: IC50_Mean.

In data set [3] the target is T1, Corticotropin-releasing factor receptor 2/Corticotropin-releasing factor-binding protein. Briefly: activators of CRF receptor 2 with binding protein – uHTS hits, confirmation (AID 602473). The class given is functional. The settings on record: read-out: EC50_Mean.
Data set [4] has as its target T2, Rac GTPase-activating protein 1 (Homo sapiens, UniProt Q9H0H5).
T2 sequence (Q9H0H5 whole entry): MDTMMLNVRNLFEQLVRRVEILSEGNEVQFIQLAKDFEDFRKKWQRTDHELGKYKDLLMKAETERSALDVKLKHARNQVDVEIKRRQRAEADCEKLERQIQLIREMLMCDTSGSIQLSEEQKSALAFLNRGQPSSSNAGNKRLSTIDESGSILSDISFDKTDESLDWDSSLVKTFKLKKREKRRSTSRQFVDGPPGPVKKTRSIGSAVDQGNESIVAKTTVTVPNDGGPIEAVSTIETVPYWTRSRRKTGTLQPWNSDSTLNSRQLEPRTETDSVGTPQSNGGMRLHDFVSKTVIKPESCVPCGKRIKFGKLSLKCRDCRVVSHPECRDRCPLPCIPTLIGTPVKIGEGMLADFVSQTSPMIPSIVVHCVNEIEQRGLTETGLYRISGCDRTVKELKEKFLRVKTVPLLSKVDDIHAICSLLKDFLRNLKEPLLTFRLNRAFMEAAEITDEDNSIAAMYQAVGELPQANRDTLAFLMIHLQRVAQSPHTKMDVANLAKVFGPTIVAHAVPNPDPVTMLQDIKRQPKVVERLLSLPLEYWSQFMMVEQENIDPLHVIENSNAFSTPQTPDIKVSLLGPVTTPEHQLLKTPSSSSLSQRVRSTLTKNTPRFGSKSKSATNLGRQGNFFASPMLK
Briefly: blockers of MgcRacGAP-driven Rac1 GTP hydrolysis – biochemical, ADP Hunter fluorescence, primary and confirmatory, confirmation (AID 624330). It counts as functional.

Data set [5] is described as follows: viability of uninfected HEp-2 cells – cell-based, HTS, cytotoxicity control for RSV inhibitor project, dose response (AID 2410). The class given is functional. The settings on record: human respiratory syncytial virus.
A further data set concerns the target Cytochrome P450 2C9 (Homo sapiens, UniProt P11712).
Data set [6] is described as follows: Trypanosoma cruzi growth suppression in host cells – NIH3T3 host cells, beta-gal luminescence, confirmation (AID 2044).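 Further: intracellular parasites grown in NIH/3T3 mouse fibroblasts as host cells; luminescent beta-galactosidase reporter signal from transgenic T. cruzi replicating inside host cells; inhibitors lower the luminescence signal.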 It counts as functional, cell-based.
Data set [7] in a line: NIH3T3 cell viability loss – ATP luminescence, mouse fibroblasts, counter-screen, dose response (AID 2010).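 Further: cells exposed to compound for about 90 hours before reading.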 It counts as functional, cell-based. Background: Counterscreens check selectivity or assay interference.
The next data set deals with Cytochrome P450 2C19 (Homo sapiens, UniProt P33261). Briefly: Cytochrome panel assay with activity outcomes. Panel member name: p450-cyp2c19 Compounds with AC50 equal or less than 10 uM are considered active. It counts as functional.
Data set [8] in a line: reduction of Shn3 3'UTR-driven luciferase in osteoblasts – cell-based, Clone20 osteoblasts, firefly luciferase, cherry-picked, dose response (AID 624132).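 Further: firefly luciferase luminescence from reporter carrying the Shn3 3'UTR in osteoblasts.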 It counts as functional.
A short description of data set [9]: P. falciparum Dd2 growth inhibitors, dose response, SYBR Green, cherry-picked samples (AID 1159567). The class given is functional, cell-based.

The term CC50 denotes the concentration that lowers cell viability or growth by half. Usually AC50 stands for the midpoint of the concentration-response curve, whichever way the signal moves.

Sequence of Cytochrome P450 2C9 (P11712 whole entry): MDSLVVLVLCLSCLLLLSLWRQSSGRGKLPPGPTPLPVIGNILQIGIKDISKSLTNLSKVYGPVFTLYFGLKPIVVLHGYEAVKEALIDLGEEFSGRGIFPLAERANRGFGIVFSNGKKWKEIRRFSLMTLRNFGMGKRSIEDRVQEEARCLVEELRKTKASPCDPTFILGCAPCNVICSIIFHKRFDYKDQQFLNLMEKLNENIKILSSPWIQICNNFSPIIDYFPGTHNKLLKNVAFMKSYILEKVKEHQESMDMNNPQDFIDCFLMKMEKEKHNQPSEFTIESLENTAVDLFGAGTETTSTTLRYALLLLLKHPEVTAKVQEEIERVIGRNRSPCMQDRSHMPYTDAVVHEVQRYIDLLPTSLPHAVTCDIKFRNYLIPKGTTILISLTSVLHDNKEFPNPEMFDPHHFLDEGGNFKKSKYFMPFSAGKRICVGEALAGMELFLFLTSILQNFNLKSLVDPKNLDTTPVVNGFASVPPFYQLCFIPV
Sequence of Cytochrome P450 2C19 (P33261 whole entry): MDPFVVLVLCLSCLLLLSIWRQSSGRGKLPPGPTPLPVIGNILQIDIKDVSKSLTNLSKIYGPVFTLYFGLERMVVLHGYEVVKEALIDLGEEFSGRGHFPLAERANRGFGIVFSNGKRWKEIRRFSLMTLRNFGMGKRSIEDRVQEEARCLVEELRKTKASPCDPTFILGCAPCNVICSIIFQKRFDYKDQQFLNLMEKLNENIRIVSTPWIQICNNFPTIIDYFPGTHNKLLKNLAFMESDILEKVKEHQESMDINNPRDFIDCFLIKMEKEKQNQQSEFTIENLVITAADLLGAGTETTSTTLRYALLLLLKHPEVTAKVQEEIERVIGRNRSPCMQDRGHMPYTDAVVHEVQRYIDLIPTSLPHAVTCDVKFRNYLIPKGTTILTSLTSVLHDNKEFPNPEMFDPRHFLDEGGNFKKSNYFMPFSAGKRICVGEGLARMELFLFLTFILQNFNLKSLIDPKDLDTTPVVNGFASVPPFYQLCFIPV

In the case of `c1ccc(CNC2=NN=C(c3ccccc3)CS2)cc1`, the EC50 in [1] was 0.293 µM (active); in the data set on H4, 24.2 µM (active). As to `COc1ccc(N2C(=O)CC(Sc3nc(C)cc(C)c3C#N)C2=O)cc1` (centres undefined), the EC50 was 14.6 µM (active) in data set [1] and 25.4 µM (active) in the data set with H4. `N#C/C(=C(/O)COC(=O)COc1cccc(Br)c1)c1nc2ccccc2[nH]1`: the IC50 in [2] was > 47.1 µM (inactive). In addition, the EC50 in data set [3] is > 53 µM (inactive). On the same counts, the results for `CCOc1nc(C)ccc1-c1noc(-c2ccccn2)n1` are > 47.1 µM (inactive) and > 53 µM (inactive).

`O=C(C(c1ccccc1)c1ccccc1)N1CCN(CCN2C(=O)c3cccc4cccc(c34)C2=O)CC1`: the IC50 in [2] was > 47.1 µM (inactive). For the same compound, in data set [3], the EC50 was > 53 µM (inactive).

With `COc1cccc(CN2CCN(Cc3cc(OC)c(OC)c(OC)c3)CC2)c1OC`, in data set [4], the IC50 was 74.8 µM (active). As for `CCCN1Cc2cccc(C(=O)NCc3cccs3)c2C1=O`, in [2], the IC50 is > 47.1 µM (inactive). The EC50 in data set [3] is > 53 µM (inactive). For `CCn1c(=O)n(CC)c2cc(N3CCCC3)c(NC(=O)c3ccccc3)cc21`, in data set [4], the IC50 is 91 µM (active).

Consider `O=C(O)Cn1cc(/C=C2\C(=O)NC(=O)N(c3ccc(Cl)cc3)C2=O)c2ccccc21`, for which the IC50 in data set [4] is 255 µM (active). Regarding `c1cncc(-c2nn3c(Cn4nnc5ccccc54)nnc3s2)c1`, the cytotoxic concentration (CC50) in data set [5] was > 50 µM (active). For `COc1ccc(S(=O)(=O)N2CCC(N3CCN(c4ccccc4OC)CC3)CC2)cc1`, the IC50 in data set [4] was 121 µM (active). On to `O=C(c1ccc(NS(=O)(=O)c2cccc([N+](=O)[O-])c2)cc1)N1CCCCCC1`, for which, in [2], the IC50 is > 47.1 µM (inactive). Besides, the EC50 in data set [3] is > 53 µM (inactive).

With `COc1ccc(Oc2ncc3nc(-c4cccc(C#N)c4)c(=O)n(Cc4cccc(OC)c4)c3n2)cc1`, the AC50 on Cytochrome P450 2C9 was 2.51 µM (inconclusive). On to `Cc1ccnc(NC(=O)c2ccc(NC(=O)c3ccco3)cc2)c1`, for which the EC50 in [1] is 1.37 µM (active); with H4, 11.9 µM (active). Regarding `Cc1cc(OCCCN2CCN(Cc3ccccc3)CC2)ccc1[N+](=O)[O-]`, the EC50 is 0.156 µM (active) in data set [6] and > 60 µM (inconclusive) in [7]. In data set [4], the IC50 is 62 µM (active). Turning to `COC(=O)c1sccc1-c1ccc(C(N)=O)o1`, in data set [5], the 50% cytotoxic concentration (CC50) was 44 µM (active). Turning to `O=S(=O)(c1ccccc1)N1CCC[C@@]2(CCN(c3ccccc3)C2)C1`, at Cytochrome P450 2C9, the half-maximal activity concentration (AC50) was 2.51 µM (inconclusive).

Consider `COc1ccc(-c2nc3cnc(OC)nc3n(Cc3cccc(OC)c3)c2=O)cc1`, for which the half-maximal activity concentration (AC50) on Cytochrome P450 2C9 is 3.16 µM (inconclusive). `C=CC[C@@H]1C=C[C@H](O/N=C(\C)CCN2CCc3nc(-c4ccccc4)c(-c4ccccc4)cc3C2)[C@H](CO)O1`: the AC50 at Cytochrome P450 2C9 is 0.0794 µM (inconclusive). Turning to `CCc1cc(-c2[nH]nc(CCC(=O)O)c2-c2nc3ccccc3n2C)c(O)cc1O`, the IC50 in [4] is 122 µM (active). Turning to `Cc1cc(C)c(S(=O)(=O)n2ccc3ccccc32)c(C)c1`, in data set [2], the IC50 was > 47.1 µM (inactive). Further, the EC50 in [3] is > 53 µM (inactive).

For `O=C(Nc1ccccc1)c1sccc1Oc1ccc([N+](=O)[O-])cc1F`, the EC50 in data set [6] is 1.42 µM (active); in data set [7], > 60 µM (not active); in [3], > 53 µM (inactive). Further, the IC50 in data set [2] is > 47.1 µM (inactive).

`O=C(Nc1nc(-c2ccc(Cl)cc2)cs1)NC1CCCCC1`: the CC50 in data set [5] was 20.3 µM (active). Turning to `c1cc(CN2CCN(C3CCCCCC3)CC2)ccn1`, in data set [4], the IC50 is 92 µM (active). On to `CCC(C)C1N=C(c2ccccc2)c2cc(Cl)ccc2N(CC(=O)NCc2ccco2)C1=O` (centres undefined), for which the IC50 in data set [2] is > 47.1 µM (inactive). For the same compound, the EC50 in data set [3] was > 53 µM (inactive).

As to `Cc1ccc(C2(C)NC(=O)N(CC(=O)Nc3ccc(-c4nc5ccc(C)cc5s4)cc3)C2=O)cc1` (centres undefined), the half-maximal cytotoxic concentration (CC50) in data set [5] is 41.5 µM (active). Consider `Cc1nc2ccccn2c1C(=O)C1=C(O)C(=O)N(CCN2CCOCC2)C1c1cccnc1` (centres undefined), for which, on Cytochrome P450 2C9, the AC50 is 17.8 µM (inconclusive). For the compound `CCN1CCN(CCOc2cccc(Cl)c2Cl)CC1`, the EC50 is 0.151 µM (active) in [6] and > 60 µM (not active) in data set [7]. In addition, the IC50 in data set [4] was 70.4 µM (active).

For the compound `COC(C(=O)Nc1ccc(F)cc1)c1ccccc1` (centres undefined), the IC50 in data set [2] was > 47.1 µM (inactive). Also, in data set [3], the EC50 was > 53 µM (inactive). For the compound `Cc1ccc(C(=O)NCC2CCCO2)cc1N1CCCC1=O` (centres undefined), the AC50 entry is “inconclusive” on Cytochrome P450 2C19 and 2.82 µM (inconclusive) on Cytochrome P450 2C9.

For `Cc1nn2c(N)c(-c3ccccc3)cnc2c1-c1ccc(Cl)cc1`, in data set [2], the IC50 was > 47.1 µM (inactive). The EC50 in data set [3] is > 53 µM (inactive). As to `COc1ccc(CN(C(=O)CSc2nnc(-c3ccc(F)cc3)o2)c2ccc(F)cc2)cc1`, the AC50 in data set [8] is 43.4 µM (active). In the case of `CC(=O)Nc1ccc2[nH]c(C3CCCCC3)nc2c1`, the AC50 entry is “inconclusive” on Cytochrome P450 2C19 and 17.8 µM (inconclusive) at Cytochrome P450 2C9. Regarding `CCCCNC(=O)CSc1nc2ccccc2c(=O)n1CCNC(C)=O`, the concentration at half-maximal activity (AC50) on Cytochrome P450 2C9 was 22.4 µM (inconclusive). As for `CC(=O)Nc1ccc(OCC[n+]2cccc(C(N)=O)c2)cc1`, the IC50 in [2] is > 47.1 µM (inactive). Moreover, the EC50 in [3] was > 53 µM (inactive).

In the case of `CCC/C(=N\NC(=O)C1CC1)c1ccccc1`, the IC50 in data set [2] was > 47.1 µM (inactive). Moreover, the EC50 in data set [3] is > 53 µM (inactive). The corresponding values for `C=CCOc1nc2c(c(=O)n(Cc3ccc(Cl)c(Cl)c3)c(=O)n2C)n1C` are > 47.1 µM (inactive) and > 53 µM (inactive). As to `CC(C)(C)[S@@+]([O-])N1Cc2cc(C(=O)N[C@@H]3CCN(Cc4ccccc4)C3)nc(-c3cccc(-c4ccncc4)c3)c2[C@H]1CCO`, the AC50 in [9] is 6.63 µM (active). On the same count and under the same terms, the result for `COCC(=O)Nc1ccc2c(c1)C(=O)N(C)C[C@H](OC)[C@H](C)CN(Cc1cccc(F)c1)[C@@H](C)CO2` reads 5.34 µM (active); that for `O=C(C1CCCC1)N1CC(=O)N2[C@H](C1)[C@@H](c1ccc(C#CCc3ccccc3)cc1)[C@@H]2CO`, 4.51 µM (active).
